According to patent US9884063B2, “Amido-substituted azole compounds” (Bayer Pharma Aktiengesellschaft, priority 2014, dated 2018):
Structures can show the parent of a compound that is named as a salt.

Legend:
[1] = test system: HEK293 FOP control reporter cell line; experiment: HEK293 FOP Assay (FOP control vector luciferase reporter); type: cell-based; conditions: Homo sapiens, HEK293 FOP control reporter cell line, 16 hours incubation, compound dilution series 50 μM to 15 nM
In short: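 Stable HEK293 line carrying the FOP vector (randomized, non-functional TCF sites; Geneticin-selected) was run in parallel with the TOP line. Cells were plated 24 h ahead at 10000/well and given recombinant human Wnt-3a at 2500–5 ng/ml. Compounds were tested at 50 μM–15 nM (3.16-fold steps) in CAFTY buffer, pH 7.4, with 2 mM Ca2+ and 0.01% BSA.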

TNKS2 = biological target: T1, TNKS2 (Homo sapiens, UniProt Q9H2K2); experiment: Modified TNKS2 Assay 3 (BPS kit #80578, biotin-NAD+, 96 well); type: biochemical; conditions: human TNKS2, BPS kit #80578, 96 well
T1 sequence (Q9H2K2 1-1166): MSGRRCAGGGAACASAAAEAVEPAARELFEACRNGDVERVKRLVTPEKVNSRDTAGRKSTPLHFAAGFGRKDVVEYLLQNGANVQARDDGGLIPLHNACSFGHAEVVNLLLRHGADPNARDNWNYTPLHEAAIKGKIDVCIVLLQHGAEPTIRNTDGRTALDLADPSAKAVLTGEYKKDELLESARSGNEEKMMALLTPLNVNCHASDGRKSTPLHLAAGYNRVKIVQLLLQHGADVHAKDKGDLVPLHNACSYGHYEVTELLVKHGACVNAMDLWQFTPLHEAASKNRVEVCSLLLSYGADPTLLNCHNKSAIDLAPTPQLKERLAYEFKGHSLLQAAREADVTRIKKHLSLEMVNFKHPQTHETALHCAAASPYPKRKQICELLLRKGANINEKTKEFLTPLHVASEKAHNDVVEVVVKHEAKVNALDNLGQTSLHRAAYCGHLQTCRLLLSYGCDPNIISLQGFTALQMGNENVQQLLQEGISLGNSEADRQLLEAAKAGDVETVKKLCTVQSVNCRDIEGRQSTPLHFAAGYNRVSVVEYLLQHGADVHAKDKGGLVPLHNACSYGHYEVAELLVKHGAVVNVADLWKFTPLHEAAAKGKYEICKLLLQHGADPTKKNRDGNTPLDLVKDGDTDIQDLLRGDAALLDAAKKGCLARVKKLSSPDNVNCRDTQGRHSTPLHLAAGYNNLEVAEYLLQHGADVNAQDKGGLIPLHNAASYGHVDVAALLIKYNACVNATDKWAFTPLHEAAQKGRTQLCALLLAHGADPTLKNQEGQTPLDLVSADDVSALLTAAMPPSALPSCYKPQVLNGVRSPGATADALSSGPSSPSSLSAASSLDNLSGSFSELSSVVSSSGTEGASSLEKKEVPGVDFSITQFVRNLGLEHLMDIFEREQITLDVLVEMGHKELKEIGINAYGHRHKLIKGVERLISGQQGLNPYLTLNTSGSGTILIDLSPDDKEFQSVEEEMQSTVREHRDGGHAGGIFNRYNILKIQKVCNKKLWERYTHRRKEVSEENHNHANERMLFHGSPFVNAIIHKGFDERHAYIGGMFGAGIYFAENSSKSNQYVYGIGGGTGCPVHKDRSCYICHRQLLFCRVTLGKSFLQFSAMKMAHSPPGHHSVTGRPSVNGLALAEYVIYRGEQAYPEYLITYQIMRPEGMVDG
In short: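 Commercial kit assay measuring TNKS2-catalysed incorporation of biotin-labelled NAD+ into a protein substrate, detected by streptavidin-HRP chemiluminescence. Run per manufacturer's protocol; IC50 is the concentration halving the normalised signal.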

Row | Compound | IC50 [1] | IC50 (TNKS2) | IC50 ([1]; HEK293, 16 h)
1 | O=C(Nc1ccc(NC(=O)c2[nH]cnc2C(=O)NCCN2CCCCC2)cc1F)c1ccc(F)cc1Cl [Example 74, N^5-{4-[(2-chloro-4-fluorobenzoyl)amino]-3-fluorophenyl}-N^4-[2-(piperidin-1-yl)ethyl]-1H-imidazole-4,5-dicarboxamide] | 14 µM | < 0.5 nM | 
2 | O=C(Nc1ccc(NC(=O)c2[nH]cnc2C(=O)NCCN2CCCCC2)cc1F)c1ccccc1Cl [Example 82, N^5-{4-[(2-chlorobenzoyl)amino]-3-fluorophenyl}-N^4-[2-(piperidin-1-yl)ethyl]-1H-imidazole-4,5-dicarboxamide] | 44 µM | < 0.5 nM | 
3 | COc1cc(NC(=O)c2[nH]cnc2C(=O)NCCN2CCCCC2)ccc1NC(=O)c1ccccc1Cl [Example 101, N^5-{4-[(2-chlorobenzoyl)amino]-3-methoxyphenyl}-N^4-[2-(piperidin-1-yl)ethyl]-1H-imidazole-4,5-dicarboxamide] | 29 µM | 10 nM | 
4 | CC(C)[C@@H](C)NC(=O)c1[nH]cnc1C(=O)Nc1ccc(NC(=O)c2ccc(F)cc2Cl)cc1 [Example 134, N^4-{4-[(2-chloro-4-fluorobenzoyl)amino]phenyl}-N^5-[(2R)-3-methylbutan-2-yl]-1H-imidazole-4,5-dicarboxamide] | 6.3 µM | 510 nM | 
5 | CC1CCCN(CCNC(=O)c2[nH]cnc2C(=O)Nc2ccc(NC(=O)c3ccccc3Cl)cc2)C1 (stereo not shown) [Example 210, N^4-{4-[(2-chlorobenzoyl)amino]phenyl}-N^5-[2-(3-methylpiperidin-1-yl)ethyl]-1H-imidazole-4,5-dicarboxamide] | 24 µM | 3 nM | 
6 | O=C(Nc1ccc(NC(=O)c2nc[nH]c2C(=O)NCCN2CCC(F)(F)CC2)cc1)c1ccccc1Cl [Example 214, N^4-{4-[(2-chlorobenzoyl)amino]phenyl}-N^5-[2-(4,4-difluoropiperidin-1-yl)ethyl]-1H-imidazole-4,5-dicarboxamide] | 22 µM | 70 nM | 
7 | O=C(Nc1ccc(NC(=O)c2nc[nH]c2C(=O)NCCN2CCC(F)(F)CC2)cc1)c1ccc(F)cc1Br [Example 215, N^4-{4-[(2-bromo-4-fluorobenzoyl)amino]phenyl}-N^5-[2-(4,4-difluoropiperidin-1-yl)ethyl]-1H-imidazole-4,5-dicarboxamide] | 29.5 µM | 120 nM | 
8 | O=C(Nc1ccc(NC(=O)c2ocnc2C(=O)NCCN2CCCC(F)C2)cc1)c1ccc(F)cc1Cl (stereo not shown) [Example 220, N^5-{4-[(2-chloro-4-fluorobenzoyl)amino]phenyl}-N^4-[2-(3-fluoropiperidin-1-yl)ethyl]-1,3-oxazole-4,5-dicarboxamide] | 36 µM | 100 nM | 
9 | O=C(Nc1ccc(NC(=O)c2ocnc2C(=O)NCCN2CC[C@H](F)C2)cc1)c1ccc(F)cc1Cl [Example 221, N^5-{4-[(2-chloro-4-fluorobenzoyl)amino]phenyl}-N^4-{2-[(3S)-3-fluoropyrrolidin-1-yl]ethyl}-1,3-oxazole-4,5-dicarboxamide] | 12 µM | 490 nM | 
10 | O=C(Nc1ccc(NC(=O)c2ocnc2C(=O)NCCN2CC[C@@H](F)C2)cc1)c1ccc(F)cc1Cl [Example 222, N^5-{4-[(2-chloro-4-fluorobenzoyl)amino]phenyl}-N^4-{2-[(3R)-3-fluoropyrrolidin-1-yl]ethyl}-1,3-oxazole-4,5-dicarboxamide] | 23 µM | 190 nM | 
11 | O=C(Nc1ccc(NC(=O)c2nc[nH]c2C(=O)NCCN2CCC(F)(F)CC2)cc1)c1ccc(F)cc1Cl [Example 224, N^4-{4-[(2-chloro-4-fluorobenzoyl)amino]phenyl}-N^5-[2-(4,4-difluoropiperidin-1-yl)ethyl]-1H-imidazole-4,5-dicarboxamide] | 27 µM | 140 nM | 
12 | O=C(Nc1ccc(NC(=O)c2nc[nH]c2C(=O)NCCN2CCCC(F)(F)C2)cc1)c1ccc(F)cc1Cl [Example 225, N^4-{4-[(2-chloro-4-fluorobenzoyl)amino]phenyl}-N^5-[2-(3,3-difluoropiperidin-1-yl)ethyl]-1H-imidazole-4,5-dicarboxamide] | 44 µM | 50 nM | 
13 | O=C(Nc1ccc(NC(=O)c2nc[nH]c2C(=O)NCCN2CCOCC2)cc1)c1ccc(F)cc1Cl [Example 227, N^4-{4-[(2-chloro-4-fluorobenzoyl)amino]phenyl}-N^5-[2-(morpholin-4-yl)ethyl]-1H-imidazole-4,5-dicarboxamide] | 23 µM | 20 nM | 
14 | O=C(Nc1ccc(NC(=O)c2nc[nH]c2C(=O)NCCN2CCC(F)CC2)cc1)c1ccc(F)cc1Cl [Example 230, N^4-{4-[(2-chloro-4-fluorobenzoyl)amino]phenyl}-N^5-[2-(4-fluoropiperidin-1-yl)ethyl]-1H-imidazole-4,5-dicarboxamide] | 27 µM | 20 nM | 
15 | O=C(Nc1ccc(NC(=O)c2nc[nH]c2C(=O)NCCN2CC[C@H](F)C2)cc1)c1ccc(F)cc1Cl [Example 232, N^4-{4-[(2-chloro-4-fluorobenzoyl)amino]phenyl}-N^5-{2-[(3S)-3-fluoropyrrolidin-1-yl]ethyl}-1H-imidazole-4,5-dicarboxamide] | 35 µM | 40 nM | 
16 | O=C(Nc1ccc(NC(=O)c2nc[nH]c2C(=O)NC2CCOCC2)cc1)c1ccc(F)cc1Cl [Example 234, N^4-{4-[(2-chloro-4-fluorobenzoyl)amino]phenyl}-N^5-(tetrahydro-2H-pyran-4-yl)-1H-imidazole-4,5-dicarboxamide] | 16 µM | 20 nM | 
17 | C[C@H]1CCCCN1CCNC(=O)c1[nH]cnc1C(=O)Nc1ccc(NC(=O)c2ccc(F)cc2Cl)cc1 [Example 266, N^4-{4-[(2-chloro-4-fluorobenzoyl)amino]phenyl}-N^5-{2-[(25)-2-methylpiperidin-1-yl]ethyl}-1H-imidazole-4,5-dicarboxamide formic acid salt] | 20 µM | 0.9 nM | 
18 | CC(CN1CCOCC1)NC(=O)c1[nH]cnc1C(=O)Nc1ccc(NC(=O)c2ccc(F)cc2Cl)cc1 (stereo not shown) [Example 268, N^4-{4-[(2-chloro-4-fluorobenzoyl)amino]phenyl}-N^5-[1-(morpholin-4-yl)propan-2-yl]-1H-imidazole-4,5-dicarboxamide] | 41 µM | 3 nM | 
19 | O=C(Nc1ccc(NC(=O)c2nc[nH]c2C(=O)NCCCN2CCCC2)cc1)c1ccc(F)cc1Cl [Example 274, N^4-{4-[(2-chloro-4-fluorobenzoyl)amino]phenyl}-N^5-[3-(pyrrolidin-1-yl)propyl]-1H-imidazole-4,5-dicarboxamide] | 45 µM | 9 nM | 
20 | O=C(Nc1ccc(NC(=O)c2nc[nH]c2C(=O)NCCN2CCC[C@@H](F)C2)cc1)c1ccc(F)cc1Cl [Example 277, N^4-{4-[(2-chloro-4-fluorobenzoyl)amino]phenyl}-N^5-{2-[(3R)-3-fluoropiperidin-1-yl]ethyl}-1H-imidazole-4,5-dicarboxamide] | 36 µM | 30 nM | 
21 | O=C(Nc1ccc(NC(=O)c2nc[nH]c2C(=O)N[C@@H]2CCNC2)cc1)c1ccc(F)cc1Cl [Example 282, N^4-{4-[(2-chloro-4-fluorobenzoyl)amino]phenyl}-N^5-[(3R)-pyrrolidin-3-yl]-1H-imidazole-4,5-dicarboxamide hydrochloride salt] |  | 10 nM | 50 µM
22 | O=C(Nc1ccc(NC(=O)c2nc[nH]c2C(=O)NCC2CCCN2)cc1)c1ccc(F)cc1Cl (stereo not shown) [Example 284, N^4-{4-[(2-chloro-4-fluorobenzoyl)amino]phenyl}-N^5-(pyrrolidin-2-ylmethyl)-1H-imidazole-4,5-dicarboxamide hydrochloride salt] |  | 10 nM | 50 µM
23 | CNC(=O)c1nc[nH]c1C(=O)Nc1ccc(NC(=O)c2cccc(C)c2Cl)cc1 [Example 346, N^5-{4-[(2-chloro-3-methylbenzoyl)amino]phenyl}-N^4-methyl-1H-imidazole-4,5-dicarboxamide] | 26 µM | > 500 nM | 
